Calls of active or inactive are those of the source. The rule behind the calls is not given here.
Columns and labels:
[1] = Inhibition of papain by colorimetric assay
[2] = Binding affinity to papain at 10 uM by fluorescent binding test

Compound	Ki [1] [µM]	Activity [2] [%]	Activity [1]
C[C@@H](C[S+]([O-])CCl)NC(=O)OC(C)(C)C (stereo partly drawn)	1430		
CC(C)(C)OC(=O)NCC[S+]([O-])CCl (stereo not drawn)			inactive
CC(C)[C@@H](C[S+]([O-])CCl)NC(=O)OC(C)(C)C (stereo partly drawn)	543		
CC(C)(C)OC(=O)N[C@@H](Cc1ccccc1)C(=O)NCC[S+]([O-])CCl (stereo partly drawn)	3670		

The remaining lines, values ahead:

Ki [1] [µM]	Activity [2] [%]	Activity [1]	Compound
471	40		CN(C)c1cccc2c(S(=O)(=O)NCC(=O)NCC[S+]([O-])CCl)cccc12 (stereo not drawn)
485			CC(C)C[C@@H](C[S+]([O-])CCl)NC(=O)OC(C)(C)C (stereo partly drawn)
142			CC(C)(C)OC(=O)N[C@@H](Cc1ccccc1)C[S+]([O-])CCl (stereo partly drawn)

Reference: ChEMBL document CHEMBL1137512, “Synthesis and evaluation of chloromethyl sulfoxides as a new class of selective irreversible cysteine protease inhibitors” (Bioorg Med Chem, 2007)
